# Values quoted from earlier work in PubChem BioAssay AID1259410 (Chemical Carcinogenesis Research Information System (CCRIS), 2018).
# Test system: rodent tumor promotion studies, tumor incidence
# Test: CCRIS tumor promotion studies
smiles,measurement,setting,value
NC(=O)c1cccnc1,outcome,"Carcinogen: DIETHYLNITROSAMINE, 55-18-5, Doses [Carcinogen]: 25 MG/KG ONCE PRECEDED 24 HR BY 70% PARTIAL HEPATECTOMY, Doses [Promoter]: 0, 6.7, 30 MILLIMOLAR IN DRINKING WATER BEGINNING 2 WK POST CARCINOGEN DOSE (STUDY DURATION: 20 MO), Doses [Promoter]: 0, 6.7, 30 MILLIMOLAR IN DRINKING WATER BEGINNING 2 WK POST CARCINOGEN DOSE (STUDY DURATION: 20 MO), Route [Carcinogen]: INTRAPERITONEAL, Route [Promoter]: ORAL, Species: RAT, Strain/Sex: F344/MALE",kidney: tumor
O=NN1CCCC1,outcome,"Carcinogen: N-BUTYL-N-4(HYDROXYBUTYL)NITROSAMINE, 3817-11-6, Doses [Carcinogen]: 0.05% IN DRINKING WATER FOR 2 WK, Doses [Promoter]: 0, 0.02% IN DIET STARTING POST CARCINOGEN AND CONTINUING FOR 22 WK, LEFT URETER LIGATED 8 D POST CARCINOGEN (STUDY DURAT, Route [Carcinogen]: ORAL, Route [Promoter]: ORAL, Species: RAT, Strain/Sex: F344/MALE",bladder: papilloma
CCCC[C@@H](C)[C@@H](OC(=O)C[C@@H](CC(=O)O)C(=O)O)[C@H](C[C@@H](C)C[C@H](O)CCCC[C@@H](O)C[C@H](O)[C@H](C)N)OC(=O)C[C@@H](CC(=O)O)C(=O)O,outcome,"Doses [Carcinogen]: 100 PPB IN WATER FOR 30 MIN, Doses [Promoter]: 0, 23, 104 PPM IN DIET FOR 42 WK BEGINNING 1 MO POST CARCINOGEN TREATMENT (STUDY DURATION: 64 WK), Doses [Promoter]: 0, 23, 104 PPM IN DIET FOR 42 WK BEGINNING 1 MO POST CARCINOGEN TREATMENT (STUDY DURATION: 64 WK), Route [Carcinogen]: IMMERSION, Route [Promoter]: ORAL, Species: FISH, Strain/Sex: SHASTA RAINBOW TROUT/MALE,FEMALE",liver: tumor
CCCCCCCC/C=C\CCCCCCCC(=O)OC,outcome,"Carcinogen: 7,12-DIMETHYLBENZ(A)ANTHRACENE, Doses [Carcinogen]: TOP, Route [Carcinogen]: DERMAL, Route [Promoter]: DERMAL, Species: MOUSE, Strain/Sex: MALE,FEMALE",integumentary system (skin)
C[C@]12CCC(=O)C=C1CC[C@@H]1[C@@H]2CC[C@@]2(C)[C@H]1CC[C@]2(C)O,outcome,"Carcinogen: N-BIS(2-HYDROXYPROPYL)NITROSAMINE, 53609-64-6, Doses [Carcinogen]: 210 MG/100 G BW 1/WK FOR 2 WK, Doses [Promoter]: 0, 300 PPM IN DIET OF CASTRATED RATS BEGINNING POST CARCINOGEN TREATMENT AND CONTINUING FOR 28 WK (STUDY DURATION: 30 WK, Route [Carcinogen]: INTRAPERITONEAL, Route [Promoter]: ORAL, Species: RAT, Strain/Sex: WISTAR/MALE",thyroid gland: adenoma or carcinoma
CC(C)=CCC/C(C)=C/CC/C(C)=C/CC/C=C(\C)CC/C=C(\C)CCC=C(C)C,outcome,"Carcinogen: 7,12-DIMETHYLBENZ(A)ANTHRACENE, Doses [Carcinogen]: TOP, Route [Carcinogen]: DERMAL, Route [Promoter]: DERMAL, Species: MOUSE, Strain/Sex: MALE",integumentary system (skin)
CC(C(=O)O)c1ccc(-c2ccccc2)c(F)c1 (stereo not drawn),outcome,"Carcinogen: N-METHYL-N'-NITRO-N-NITROSOGUANIDINE, 70-25-7, Doses [Carcinogen]: 10 MG ADMINISTERED AS 3 D TREATMENT CYCLES FOLLOWED BY REST PERIODS FOR A TOTAL OF 6 CYCLES (TOTAL DOSE 180 MG DURING 40, Doses [Promoter]: 0.5 MG ADMINISTERED AS 3 D TREATMENT CYCLES FOLLOWED BY REST PERIODS ADMINISTERED CONCURRENTLY WITH CARCINOGEN DURING 40, Route [Carcinogen]: INTRAGASTRIC, Route [Promoter]: GAVAGE, Species: RAT, Strain/Sex: WISTAR/FEMALE",stomach: adenocarcinoma; small intestine: adenocarcinoma
CCCCCCCCCC1(CCCCCC(=O)OC2C(C)C3(O)C(C=C(CO)CC4(O)C(=O)C(C)=CC43)C3C(C)(C)C23OC(C)=O)OCC(C)(C)N1[O] (stereo not drawn),outcome,"Carcinogen: 7,12-DIMETHYLBENZ[A]ANTHRACENE, 57-97-6, Doses [Carcinogen]: 100 NMOL ONCE, Doses [Promoter]: 0, 5 NMOL 2/WK FOR 24 WK BEGINNING 1 WK POST CARCINOGEN DOSE (STUDY DURATION: 25 WK), Route [Carcinogen]: DERMAL, Route [Promoter]: DERMAL, Species: MOUSE, Strain/Sex: NMRI/FEMALE",skin: tumor
CN(C)CCCN1c2ccccc2Sc2ccc(Cl)cc21,outcome,"Carcinogen: UV IRRADIATION, Doses [Carcinogen]: 0.53 J/CM2 INCREASED BY 20% EVERY 2 WK TO 1.60 J/CM2 AND MAINTAINED AT 1.60 J/CM2 UNTIL DEATH, ADMINISTERED 5 D/WK FOR 1, Doses [Promoter]: 0, 15 UG/G BEGINNING 2 WK POST FIRST CARCINOGEN DOSE ADMINISTERED 2 HR PRIOR TO EACH CARCINOGEN DOSE (STUDY DURATION: 30, Route [Carcinogen]: DERMAL, Route [Promoter]: INTRAPERITONEAL, Species: MOUSE, Strain/Sex: SKH/HRL/FEMALE",skin: tumor
O=C(CCNNC(=O)c1ccncc1)NCc1ccccc1,outcome,"Carcinogen: N-METHYL-N'-NITRO-NITROSOGUANIDINE, Doses [Carcinogen]: 25 UG/ML IN DRINKING WATER FOR 25 WK, Doses [Promoter]: 0, 50 MG/KG IN OLIVE OIL 1/2D FOR 26 WK ADMINISTERED POST CARCINOGEN DOSES (STUDY DURATION: 52 WK), Route [Carcinogen]: ORAL, Route [Promoter]: SUBCUTANEOUS, Species: RAT, Strain/Sex: WISTAR/MALE",glandular stomach: adenocarcinoma
Cc1ccc(O)c(C)c1,outcome,"Carcinogen: 7,12-DIMETHYLBENZ(A)ANTHRACENE, Doses [Carcinogen]: TOP, Route [Carcinogen]: DERMAL, Route [Promoter]: DERMAL, Species: MOUSE, Strain/Sex: FEMALE",integumentary system (skin)
O=C(O)/C=C/c1ccc(O)c(O)c1,outcome,"Carcinogen: DIETHYLNITROSAMINE, 55-18-5, N-METHYLNITROSOUREA, 684-93-5, 1,2-DIMETHYLHYDRAZINE, 540-73-8, N-BUTYL-N-(4-HYDROXYBUTYL)N, Carcinogen: DIETHYLNITROSAMINE, 55-18-5, N-METHYLNITROSOUREA, 684-93-5, 1,2-DIMETHYLHYDRAZINE, 540-73-8, N-BUTYL-N-(4-HYDROXYBUTYL)N, Doses [Carcinogen]: 100 MG/KG BW DEN ONCE FOLLOWED BY 20 MG/KG BW MNU 2/WK FOR 2 WK THEN 40 MG/KG BW DMH 2/WK FOR THE NEXT 2WK, 0.05% BBN IN, Doses [Promoter]: 0, 0.4% IN DIET FOR 24 WK BEGINNING POST CARCINOGEN TREATMENT (STUDY DURATION: 28 WK), Route [Carcinogen]: INTRAPERITONEAL, INTRAPERITONEAL, SUBCUTANEOUS, ORAL, Route [Carcinogen]: INTRAPERITONEAL, INTRAPERITONEAL, SUBCUTANEOUS, ORAL, Route [Promoter]: ORAL, Species: RAT, Strain/Sex: F344/MALE",forestomach: papilloma
same,outcome,"Carcinogen: N-METHYL-N'-NITRO-N-NITROSOGUANIDINE, 70-25-7, Doses [Carcinogen]: 150 MG/KG BW IN 50% DMSO ONCE, Doses [Promoter]: 1% IN DIET BEGINNING 1 WK POST CARCINOGEN TREATMENT FOR 51 WK (STUDY DURATION: 52 WK), Route [Carcinogen]: GAVAGE, Route [Promoter]: ORAL, Species: RAT, Strain/Sex: F344/MALE","forestomach: papilloma, squamous cell carcinoma"
